Source: PMC12384620, “Hit-to-Lead Studies of Pyrazinylpiperazines against Visceral Leishmaniasis: Pharmacokinetic Profile and In Vivo Efficacy of Potent Compounds against Leishmania infantum” (ACS Pharmacology & Translational Science, 2025)

Columns and labels:
[1] = PAMPA blood-brain barrier permeability; type: in vitro ADME; settings: PAMPA-BBB, pH 7.4; read-out: BBB Pe
Protocol: One mg of each compound was solubilized in ethanol (1 mL) in a 5 mL flask, and an additional 500 μL ethanol and 3.5 mL PBS buffer (pH 7.4) were added to this solution. […] 180 μL of a PBS (pH 7.4)/ethanol (70:30) solution were then added to the wells of a 96-well receiver plate, and 5 μL of a porcine brain lipid solution (20 mg/mL in dodecane) to the wells of a 96-well donor plate. […] Afterward, the donor plate was removed, and the content of the receiver plate was transferred to a UV reading plate, which was read using a microplate reader (SpectraMax 5 – Molecular Devices). A reference sample for the internal correction of the microplate reader was prepared using 180 μL of the PBS (pH 7.4)/ethanol (70:30) solution (adapted from ref ). The optical density values obtained from the content of the receiver plate were compared with the ones obtained from readings performed with the initial solutions containing each compound, before their addition to the donor plate. […] The optical density values for the experimental controls were used to determine the equation of the linear regression (optical density vs P e ), which allowed the determination of the P e value of each compound from the optical density values obtained from the receiver plate, using an in-house Microsoft Excel spreadsheet.

[2] = Metabolic stability in mouse liver microsomes; type: in vitro ADME; settings: pH 7.4, MLM, with NADPH cofactor; for microsomal CLint at 5 μM: read-out: Clint, intrinsic clearance; for half-life at 5 μM: read-out: t1/2, microsomal half-life
Protocol: To a microcentrifuge tube was added 1 mg/mL Mouse Liver Microsome (MLM), a NADPH generating system consisting of 1 mM NADP+, 1.5 mM MgCl2, 3.5 mM glucose-6-phosphate and 0.5 U/mL glucose-6-phosphate dehydrogenase, and phosphate buffer (pH 7.4) in a sufficient amount for a total volume of […]. After a 15 min preincubation at 37 °C in a water bath, the enzymatic reactions were started by adding 2 μL of a […] stock solution of each compound to be assessed, reaching a final concentration of 5 μM in the tested compound. , The samples were further incubated at 37 °C under stirring (30 rpm) for predetermined periods (0, 15, 30, 45, and 60 min), and 500 μL chilled MeOH and 500 μL chilled acetonitrile were added before the samples were homogenized and left standing in an ice bath to accelerate protein precipitation. The resulting mixture was centrifugated at 13000 rpm for 15 min at 4 °C, the organic layer was extracted and 2 μL internal standard (clonazepam 5 μM) was added. Finally, the samples were filtered through a PVDF filter (Millex 0.22 μm x 13 mm) and analyzed by HPLC-PDA. ,

L. infantum GSK-3A = assay: GSK-3A enzyme inhibition (LANCE TR-FRET); type: biochemical; settings: concentrations up to 30 μM, 50 nM enzyme
Protocol: The following controls were included: protein in 1% DMSO (100% activity), 10 μM AZD-5438 (0% activity), and buffer without enzyme (blank).
To detect the progress of the enzymatic reaction, a commercially available TR-FRET-based assay (LANCE TR-FRET, PerkinElmer) was used. In the enzymatic step, purified protein kinase and the peptide substrate were incubated with compounds 1 – 6 for 30 min at 25 °C before the addition of ATP to start the reaction, which was run at 30 °C (2 h for GSK-3A or 1 h 15 min for GSK-3B). […]. […]
The fluorescence signal was measured using a CLARIOstar microplate reader (BMG LABTECH) set with an excitation wavelength of 320 nm and an emission wavelength of 665 nm. MARS software (BMG LABTECH) was used to analyze the data obtained after reading each plate. The background fluorescence signal (blank) was subtracted from the fluorescence signal obtained for each reaction, in order to reflect the specific signal of enzymatic activity. The data was then analyzed with the GraphPad Prism v10 software, using the equation “log(inhibitor) vs response - variable slope (four parameters) - Y = Bottom + (Top-Bottom)/(1 + 10̂((LogIC50-X)* HillSlope))” to obtain dose–response curves and determine IC50 values. […]

L. braziliensis Hsp83 = assay: Hsp83 interaction by differential scanning fluorimetry; type: binding, Leishmania braziliensis
Protocol: The assays were performed using an Applied Biosystems 7500 Fast RT-PCR system (Applied Biosystems, Foster City, CA, USA), in triplicate, with 96-well PCR plates (BioRad, Hercules, CA, USA) sealed with transparent capping strips (BioRad, Hercules, CA, USA). The plates were centrifugated for 2 min at 2000 rpm at 25 °C. The temperature was then ramped up from 25 to 85 °C, increasing 1 °C per minute, while fluorescence signals were monitored using SYPRO Orange dye, with an excitation wavelength of 492 nm and an emission wavelength of 610 nm.
The DSF conditions used in this study have been previously described. , Briefly, each well contained 10 μM L. braziliensis Hsp90 or 5 μM L. braziliensis SOD, 1 μL of 5X SYPRO Orange, buffer A (50 mM PBS, 100 mM NaCl, pH 7.0 for L. braziliensis SOD or 50 mM Tris-HCl, 100 mM KCl, pH 8.0 for L. braziliensis Hsp90), and either 1 μL DMSO (5% v/v, negative control) or 1 – 6 (diluted in DMSO). […] Raw fluorescence data was collected using the Applied Biosystems 7500 Fast Software v2.0 and then exported to NAMI for Tm calculation via the first-derivative method. Differences in Tm values (ΔTm) were considered statistically significant when p < 0.05, as determined by the Kruskal–Wallis test followed by Dunn’s post-test for multiple comparisons, performed using GraphPad Prism 10.0 (GraphPad Software, San Diego, CA, USA, www.graphpad.com).

[3] = system: glycogen synthase kinase-3 (GSK-3); set-up: method as in earlier work; settings: ref previous screening of potential GSK-3 inhibitors among the Leishbox; cited from earlier work

With `O=C(c1ccc(O)c(Cl)c1)N1CCN(c2cnccn2)CC1` [Compound 1, (3-Chloro-4-hydroxyphenyl)(4-(pyrazin-2-yl)piperazin-1-yl)methanone] the Papp at 0.2 mg/mL [1] was 0.52 ×10⁻⁶ cm/s, the microsomal CLint at 5 μM [2] was 1.23 µL/min/mg and the half-life at 5 μM [2] was 2.36 h. The “inhibition of L. infantum GSK-3A” value (L. infantum GSK-3A) was “did not exert any inhibition”, the “interaction with L. braziliensis Hsp83 (DSF titration curves)” value (L. braziliensis Hsp83; 100 μM to 12.5 μM) was “neither of these compounds interacts” and the GSK-3 inhibition [3] was “did not inhibit”.

With `O=C(c1ccc(O)cc1)N1CCN(c2cnccn2)CC1` [Compound 2, (4-Hydroxyphenyl)(4-(pyrazin-2-yl)piperazin-1-yl)methanone] the Papp at 0.2 mg/mL [1] was 0.55 ×10⁻⁶ cm/s, the microsomal CLint at 5 μM [2] was 0.55 µL/min/mg and the half-life at 5 μM [2] was 5.25 h. The “inhibition of L. infantum GSK-3A” value (L. infantum GSK-3A) was “no inhibitory effect” and the “effect on Tm of L. braziliensis Hsp83 (DSF)” value (L. braziliensis Hsp83; 100 μM) was “failed to exert statistically significant effects”.
